From patent US4652566A, “Benzofuran derivatives, processes for preparing the same and antihypertensive agents containing the same” (Kaken Pharmaceutical Co., Ltd., priority 1984, dated 1987) come the findings set out here.

The LD50 is the dose expected to kill half of the subjects tested. The low end stands for a more toxic substance, the high end for a less toxic substance.

Counter-ions that a name gives are not always drawn. Like-named read-outs stand apart in the source and are kept apart here. Bounds are passed on as bounds.

The target in series [1] is T1, α-adrenergic blockade (vas deferens specimen, contraction by noradrenalin) (Rattus norvegicus, UniProt P43140).
T1 construct: from tissue; host or cells: vas deferens of six-week-old male Wistar rat
T1 sequence (P43140 1-466): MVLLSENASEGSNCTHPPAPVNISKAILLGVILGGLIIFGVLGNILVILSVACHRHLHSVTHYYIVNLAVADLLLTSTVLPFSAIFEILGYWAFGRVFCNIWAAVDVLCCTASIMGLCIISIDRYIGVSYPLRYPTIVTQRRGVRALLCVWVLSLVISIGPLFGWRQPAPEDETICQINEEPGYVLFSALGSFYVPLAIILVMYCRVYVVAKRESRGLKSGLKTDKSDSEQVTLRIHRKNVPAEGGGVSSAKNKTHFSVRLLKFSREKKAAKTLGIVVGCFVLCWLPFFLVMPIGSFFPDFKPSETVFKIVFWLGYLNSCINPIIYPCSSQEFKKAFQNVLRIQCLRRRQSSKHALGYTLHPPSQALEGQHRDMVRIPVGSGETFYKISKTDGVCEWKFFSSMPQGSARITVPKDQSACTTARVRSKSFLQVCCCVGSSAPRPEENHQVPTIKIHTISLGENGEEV
The experiment in a line: α-Adrenergic blockade effect (contraction response by noradrenalin of vas deferens specimen, Magnus method). The arrangement: species or system Wister male rat.

Series [2] concerns the target T2, calcium antagonism (thoracic aorta spiral specimen, contraction by calcium) (Cavia porcellus, UniProt O35505).
T2 construct: from tissue; host or cells: thoracic aorta spiral strip of male Hartley guinea pig
Briefly: Calcium antagonistic effect (contraction response by calcium of spiral thoracic aorta specimen, Magnus method). The arrangement: species or system Hartly male giunea pig. The following applies: guinea pig thoracic aorta, antagonism of calcium contraction; for Kb: read-out: Calcium antagonistic effect, pA2 value (converted). How it is done: [Calcium antagonistic effect]
Using a spiral blood vessel specimen taken from a thoracic aorta of Hartly male giunea pig weighed 400 to 600 g, a contraction response by calcium was measured as a dose-response curve according to Magnus method and the antagonistic activity for each test compound was indicated as above-mentioned pA2 value.

Series [3] in a line: Accute toxicity test (LD50 value). The following applies: mouse, in vivo; mice; single oral administration; deaths by seventh day; Litchfield-Wilcoxon. How it is done:
[Accute toxicity test (LD50 value)]
The experiment was carried out using six weeks old ddy male mice.
Each of test compounds was suspended in an aqueous solution containing 5% by weight of acasia and the suspension was administered compulsorily once orally with a gastric probe. Within six hours after the start of the administration, the behavior of tested mice were observed consecutively. Thereafter, the observation was made at an interval of twenty four hours during 7 days and an accumulative number of deaths seventh day since the start of the administration was measured.
LD50 value was calculated according to the Litchfield-Wilcoxon method.

Series [4] in a line: Antihypertensive effect and effect on heart rate in spontaneously hypertensive rat (SHR). It is filed as in vivo. The conditions noted are these: po, single dose. Here is the method: [Antihypertensive effect and effect on a heart rate on rat suffering from a spontaneously hypertensive rat (SHR)]
A blood pressure was measured under no anesthetic condition by means of an apparatus for recording a blood pressure of a tail artery and a heart rate (Riken Kaihatsu Co., Ltd.) (PS-802) and at the same time a heart rate was also measured.
Each of test compounds was dissolved or suspended in an aqueous solution containing 5% by weight of acasia and the obtained solution or suspension was administered once orally to SHR which had been kept under a fast condition for one night. A blood pressure and a heart rate were measured before administration and after one hour, three hours, five hours and seven hours of it and the maximum value of changes were calculated by comparing the value measured before administration with the value measured after administration.
For the purpose of a comparison, the same experiment as mentioned above was carried out on both Labetalol and Diltiazem as mentioned above.
With respect to a dosage, 100 mg/kg and 10 mg/kg as to compounds obtained by Examples 2, 5, 6, 9 and 18 to 23 were respectively administered, 100 mg/kg as to compounds obtained by Examples 1, 3, 4, 7 and 10 to 17 was respectively administered.

[5] abbreviates: rat vas deferens, antagonism of noradrenalin contraction, pA2 = negative logarithm of antagonist dose shifting agonist curve two times, read-out: α-Adrenergic blockade effect, pA2 value (converted).
[6] abbreviates: 10 mg/kg, maximum over 1, 3, 5, 7 hours (Table 2).
[7] abbreviates: 100 mg/kg, maximum over 1, 3, 5, 7 hours (Table 2).
The mark [8] stands for this setting: 100 mg/kg, maximum over 1, 3, 5, 7 hours (Table 3).
The mark [9] stands for this setting: rat vas deferens, antagonism of noradrenalin contraction, pA2 = negative logarithm of antagonist dose shifting agonist curve two times.

T2 sequence (O35505 whole entry): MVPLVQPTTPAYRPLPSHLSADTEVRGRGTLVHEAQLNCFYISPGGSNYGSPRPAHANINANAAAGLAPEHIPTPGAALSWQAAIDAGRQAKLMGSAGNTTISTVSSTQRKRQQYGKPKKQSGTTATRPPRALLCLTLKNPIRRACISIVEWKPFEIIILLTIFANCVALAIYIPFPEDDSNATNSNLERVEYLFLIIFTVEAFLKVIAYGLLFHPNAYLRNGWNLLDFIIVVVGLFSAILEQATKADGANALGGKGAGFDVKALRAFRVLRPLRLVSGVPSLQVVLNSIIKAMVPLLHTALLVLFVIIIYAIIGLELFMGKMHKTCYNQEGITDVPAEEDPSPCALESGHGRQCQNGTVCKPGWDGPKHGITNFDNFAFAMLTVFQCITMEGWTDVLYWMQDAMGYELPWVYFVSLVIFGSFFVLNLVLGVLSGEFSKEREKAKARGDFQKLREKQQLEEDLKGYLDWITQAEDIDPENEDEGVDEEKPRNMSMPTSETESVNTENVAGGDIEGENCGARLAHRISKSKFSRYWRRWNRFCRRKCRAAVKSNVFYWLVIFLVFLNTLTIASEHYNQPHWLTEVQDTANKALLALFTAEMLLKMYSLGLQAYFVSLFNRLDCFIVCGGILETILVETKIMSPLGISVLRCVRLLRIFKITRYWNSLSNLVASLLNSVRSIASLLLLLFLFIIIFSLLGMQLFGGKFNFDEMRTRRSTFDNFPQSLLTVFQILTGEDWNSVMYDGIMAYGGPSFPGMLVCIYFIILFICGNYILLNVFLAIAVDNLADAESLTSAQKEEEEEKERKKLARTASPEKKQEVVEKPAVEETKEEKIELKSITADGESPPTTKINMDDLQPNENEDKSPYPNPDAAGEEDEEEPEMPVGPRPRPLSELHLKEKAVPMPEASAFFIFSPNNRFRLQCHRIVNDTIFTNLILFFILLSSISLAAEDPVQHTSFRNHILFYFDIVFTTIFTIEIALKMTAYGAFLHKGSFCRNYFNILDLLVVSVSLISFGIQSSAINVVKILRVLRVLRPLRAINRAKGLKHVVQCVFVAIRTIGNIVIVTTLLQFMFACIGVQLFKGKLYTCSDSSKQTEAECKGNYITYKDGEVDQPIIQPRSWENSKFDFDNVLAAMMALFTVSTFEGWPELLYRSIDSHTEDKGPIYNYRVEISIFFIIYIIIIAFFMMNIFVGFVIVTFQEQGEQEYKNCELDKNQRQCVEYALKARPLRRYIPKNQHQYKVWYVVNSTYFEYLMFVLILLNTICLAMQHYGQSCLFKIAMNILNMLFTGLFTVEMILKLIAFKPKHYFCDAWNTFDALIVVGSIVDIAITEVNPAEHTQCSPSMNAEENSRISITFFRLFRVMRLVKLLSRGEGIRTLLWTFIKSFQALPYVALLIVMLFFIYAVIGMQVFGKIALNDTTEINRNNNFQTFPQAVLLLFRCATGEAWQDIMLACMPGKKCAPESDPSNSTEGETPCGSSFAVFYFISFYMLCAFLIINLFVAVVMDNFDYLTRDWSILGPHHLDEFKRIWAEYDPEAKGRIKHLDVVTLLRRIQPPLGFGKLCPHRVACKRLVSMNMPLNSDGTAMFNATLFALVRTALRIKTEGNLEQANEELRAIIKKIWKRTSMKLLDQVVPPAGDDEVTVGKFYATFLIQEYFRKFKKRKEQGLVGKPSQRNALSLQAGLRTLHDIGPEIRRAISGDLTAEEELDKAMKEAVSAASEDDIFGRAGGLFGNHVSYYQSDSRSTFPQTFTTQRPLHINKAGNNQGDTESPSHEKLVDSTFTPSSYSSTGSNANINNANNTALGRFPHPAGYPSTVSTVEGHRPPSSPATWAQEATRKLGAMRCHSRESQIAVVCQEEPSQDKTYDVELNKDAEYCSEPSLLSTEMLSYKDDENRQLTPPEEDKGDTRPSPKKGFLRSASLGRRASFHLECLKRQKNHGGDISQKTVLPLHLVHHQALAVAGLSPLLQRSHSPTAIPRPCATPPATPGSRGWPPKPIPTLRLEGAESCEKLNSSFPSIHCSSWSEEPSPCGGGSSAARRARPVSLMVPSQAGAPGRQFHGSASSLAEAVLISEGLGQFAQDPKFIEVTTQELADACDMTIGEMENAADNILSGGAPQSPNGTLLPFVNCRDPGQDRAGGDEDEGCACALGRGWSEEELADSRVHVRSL

Take `CC(=O)c1cc2cccc(OCC(O)CN3CCN(c4ccccc4C)CC3)c2o1` (stereo not shown) [Ex. 6 (HCl salt), 2-acetyl-7-{2-hydroxy-3-[4-(2-methylphenyl)-piperazinyl]propoxy}benzofuran]: the Kb in series [1] (setting [5]) was 44.7 nM; in series [2], 468 nM. The compound also showed an LD50 at 168 h in series [3] above 1500 mg/kg.
The like results for `CC(=O)c1cc2cc(OCC(O)CN3CCN(c4ccccc4C)CC3)ccc2o1` (stereo not shown) [Ex. 7 (HCl salt)] were, in that order, 219 nM, 631 nM and above 2000 mg/kg.
`CC(=O)c1cc2cc(OCC(O)CN3CCN(c4ccccc4C)CC3)ccc2o1` (stereo not shown) [Ex. 7]: in series [4] (setting [6]), the “Maximum value of change, heart rate” value is recorded as -45.0 ± 17.2 beats/min and the “Maximum value of change, systolic pressure” value is listed as -86.4 ± 8.6 mmHg. Further, in series [4] (setting [7]), the “Maximum value of change, heart rate” value was -51.3 ± 20.2 beats/min and the “Maximum value of change, systolic pressure” value was -117.5 ± 12.6 mmHg.
The like results for `COc1ccccc1N1CCN(CC(O)COc2ccc3oc(C(C)=O)cc3c2)CC1` (stereo not shown) [Ex. 5] were, in that order, -49.2 ± 28.0 beats/min, -56.3 ± 6.0 mmHg, -143.4 ± 34.2 beats/min and -101.3 ± 5.2 mmHg.
Regarding `COc1ccc(N2CCN(CC(O)COc3cccc4cc(C(N)=O)oc34)CC2)cc1` (stereo not shown) [Ex. 10, 2-carbamoyl-7-{2-hydroxy-3-[4-(4-methoxyphenyl)piperazinyl]porpoxy,}benzofuran], the “α-Adrenergic blockade effect, relative ratio as compared with Phentolamine” value in series [1] came to 1.8. Besides, the Kb in series [1] (setting [5]) was 87.1 nM. The Kb in series [2] was 1260 nM. In series [4] (setting [8]), the “Maximum value of change, heart rate” value was -80.0 ± 37.6 beats/min and the “Maximum value of change, systolic pressure” value is -97.9 ± 4.0 mmHg. Moreover, the LD50 at 168 h in series [3] was determined as 1100 mg/kg.
On to `CCOC(=O)c1cc2cc(OCC(O)CN3CCN(c4ccccc4OC)CC3)ccc2o1` (stereo not shown) [Ex. 19 (HCl salt), 2-ethoxycarbonyl-5-{2-hydroxy-3-[4-(2-methoxyphenyl)piperrazinyl]propoxy}benzofuran], for which the “α-Adrenergic blockade effect, pA2 value” in series [1] (setting [9]) was determined as 6.72 ± 0.03. The “Calcium antagonistic effect, pA2 value” in series [2] was 5.28 ± 0.14. Also, the median lethal dose (LD50) at 168 h in series [3] was above 1500 mg/kg.
Turning to `CC(=O)c1cc2cccc(OCC(O)CN3CCN(c4ccccc4C)CC3)c2o1` (stereo not shown) [Ex. 6, 2-acetyl-7-{2-hydroxy-3-[4-(2-methylphenyl)-piperazinyl]propoxy}benzofuran], in series [4] (setting [6]), the “Maximum value of change, heart rate” value is on record as -70.0 ± 20.3 beats/min and the “Maximum value of change, systolic pressure” value is recorded as -71.7 ± 4.9 mmHg. Also, in series [4] (setting [7]), the “Maximum value of change, heart rate” value is recorded as -135.8 ± 17.0 beats/min and the “Maximum value of change, systolic pressure” value is given as -90.3 ± 9.2 mmHg.
Turning to `CCOC(=O)c1cc2cccc(OCC(O)CN3CCN(c4ccccc4OC)CC3)c2o1` (stereo not shown) [Ex. 18 (HCl salt), 2-ethoxycarbonyl-7-{2-hydroxy-3-[4-(2-methoxyphenyl)-piperazinyl]propoxy}benzofuran], the Kb in series [1] (setting [5]) is 74.1 nM; in series [2], 209 nM. Also, in series [3], the LD50 at 168 h was above 1000 mg/kg.
Take `COc1ccccc1N1CCN(CC(O)COc2cccc3cc(C(=O)O)oc23)CC1` (stereo not shown) [Ex. 21, 2-carboxy-7-{2-hydroxy-3-[4-(2-methoxyphenyl)piperazinyl]propoxy}benzofuran]: in series [4] (setting [6]), the “Maximum value of change, heart rate” value is -5.8 ± 8.7 beats/min and the “Maximum value of change, systolic pressure” value is on record as -46.9 ± 6.3 mmHg. For the same compound, in series [4] (setting [7]), the “Maximum value of change, heart rate” value is -25.7 ± 16.4 beats/min and the “Maximum value of change, systolic pressure” value was -73.8 ± 9.9 mmHg.
Take `COc1ccc([C@@H]2Sc3ccccc3N(CCN(C)C)C(=O)[C@@H]2OC(C)=O)cc1` [Diltiazem, reference compound]: the “Maximum value of change, heart rate” value in series [4] (setting [6]) is reported as -140.0 ± 27.5 beats/min; in series [4] (setting [7]) it was -136.7 ± 34.2 beats/min; in series [4] (setting [8]) it was -136.7 ± 34.2 beats/min. In addition, the “Maximum value of change, systolic pressure” value in series [4] (setting [6]) is given as -12.8 ± 5.7 mmHg; in series [4] (setting [7]) it was -79.9 ± 11.6 mmHg; in series [4] (setting [8]), -79.9 ± 11.6 mmHg.
On to `COc1ccccc1N1CCN(CC(O)COc2cccc3cc(C(C)=O)oc23)CC1` (stereo not shown) [Ex. 2, 2-acetyl-7-{2-hydroxy-3-[4-(2-methoxyphenyl)piperazinyl]-propoxy}benzofuran], for which, in series [4] (setting [6]), the “Maximum value of change, heart rate” value was -121.7 ± 15 beats/min and the “Maximum value of change, systolic pressure” value is recorded as -54.8 ± 11.2 mmHg. Moreover, in series [4] (setting [7]), the “Maximum value of change, heart rate” value was -155.6 ± 15.5 beats/min and the “Maximum value of change, systolic pressure” value is listed as -72.4 ± 8.9 mmHg. Besides, the LD50 at 168 h in series [3] is above 1500 mg/kg.
Turning to `CCOC(=O)c1cc2cc(OCC(O)CN3CCN(c4ccccc4C)CC3)ccc2o1` (stereo not shown) [Ex. 20, 2-ethoxycarbonyl-5-{2-hydroxy-3-[4-(2-methylphenyl)-piperazinyl]propoxy}benzofuran], in series [4] (setting [6]), the “Maximum value of change, heart rate” value was -81.1 ± 22.2 beats/min and the “Maximum value of change, systolic pressure” value is -57.5 ± 12.5 mmHg. For the same compound, in series [4] (setting [7]), the “Maximum value of change, heart rate” value is given as -87.5 ± 17.7 beats/min and the “Maximum value of change, systolic pressure” value is -80.7 ± 13.6 mmHg.
`CCOC(=O)c1cc2cc(OCC(O)CN3CCN(c4ccccc4C)CC3)ccc2o1` (stereo not shown) [Ex. 20 (HCl salt), 2-ethoxycarbonyl-5-{2-hydroxy-3-[4-(2-methylphenyl)-piperazinyl]propoxy}benzofuran]: in series [1] (setting [9]), the “α-Adrenergic blockade effect, pA2 value” is on record as 6.46 ± 0.09. The “Calcium antagonistic effect, pA2 value” in series [2] worked out at 4.88 ± 0.70. In series [3], this compound returned an LD50 at 168 h above 1500 mg/kg.
As for `CCOC(=O)c1cc2cccc(OCC(O)CN3CCN(c4ccccc4OC)CC3)c2o1` (stereo not shown) [Ex. 18, 2-ethoxycarbonyl-7-{2-hydroxy-3-[4-(2-methoxyphenyl)-piperazinyl]propoxy}benzofuran], in series [4] (setting [6]), the “Maximum value of change, heart rate” value is given as -96.7 ± 35.1 beats/min and the “Maximum value of change, systolic pressure” value is recorded as -35.8 ± 4.6 mmHg. For the same compound, in series [4] (setting [7]), the “Maximum value of change, heart rate” value is -138.3 ± 25.4 beats/min and the “Maximum value of change, systolic pressure” value is on record as -65.1 ± 5.5 mmHg.
Compound `CC(CCc1ccccc1)NCC(O)c1ccc(O)c(C(N)=O)c1` (stereo not shown) [Labetalol, reference compound] gave a Kb in series [1] of 1510 nM. Also, the results for the “Maximum value of change, heart rate” value in series [4] (setting [6]), in series [4] (setting [7]) and in series [4] (setting [8]) were -122.5 ± 37.5 beats/min, -125.2 ± 25.6 beats/min and -125.2 ± 25.6 beats/min, respectively. The “Maximum value of change, systolic pressure” value in series [4] (setting [6]) was -32.9 ± 12.9 mmHg; in series [4] (setting [7]) it was -55.0 ± 9.1 mmHg; in series [4] (setting [8]), -55.0 ± 9.1 mmHg.
Consider `CCOC(=O)c1cc2cc(OCC(O)CN3CCN(c4ccccc4OC)CC3)ccc2o1` (stereo not shown) [Ex. 19, 2-ethoxycarbonyl-5-{2-hydroxy-3-[4-(2-methoxyphenyl)piperrazinyl]propoxy}benzofuran], for which the entries for the “Maximum value of change, heart rate” value in series [4] (setting [6]) and in series [4] (setting [7]) were -68.4 ± 45.1 beats/min and -73.4 ± 19.6 beats/min, respectively. The “Maximum value of change, systolic pressure” value in series [4] (setting [6]) is on record as -37.6 ± 9.0 mmHg; in series [4] (setting [7]), -60.1 ± 10.8 mmHg.
As to `COc1ccccc1N1CCN(CC(O)COc2cccc3cc(C(=O)O)oc23)CC1` (stereo not shown) [Ex. 21 (HCl salt), 2-carboxy-7-{2-hydroxy-3-[4-(2-methoxyphenyl)piperazinyl]propoxy}benzofuran], the Kb in series [1] (setting [5]) is 355 nM; in series [2], 3310 nM. Further, in series [3], the LD50 at 168 h is above 1000 mg/kg.
